This is an account of results in patent US6713494B1, “Amorphous benzothiophenes, methods of preparation and methods of use” (Eli Lilly and Company, priority 1996, dated 2004).

For series [1] the following is noted: for Solubility: in water, room temperature, hydrochloride.
A short description of the next series: physchem. Particulars: water, 37 °C, thermodynamic from solid, in water, in sonicator.
For series [2] the following is noted: long term studies; birefringence under polarized light microscope.
Description: The presence of the amorphous form of a compound of formula I was determined by observing the material under a polarized light microscope, and determining if the material was birefringent. If no birefringence was observed, the material was considered to be amorphous.
The amorphous material was also made as a complex with povidone, with ratios of raloxifene HCl to PVP as follows: 9:1, 3:1, and 1:1 (w/w). Complexes with hydroxypropyl-β-cyclodextrin (HPBCD) were also prepared, with a ratio of raloxifene HCl to HPBCD of from 1:1 to 1:4 (w/w).
A short description of series [3]: Bioavailability study: plasma levels in dogs. In kind it is in vivo. The following applies: 4 mg/kg, PEG vehicle, plasma levels over a 10 hour period, amorphous vs crystalline form. The protocol:
The extent and rate of absorption of the crystalline and amorphous forms of raloxifene HCl was determined. The two forms of the compound were formulated in a PEG vehicle as follows: […]
Six dogs were dosed as follows: three dogs received the amorphous form, while three dogs received the crystalline form, both at a dose of 4 mg/kg. Plasma levels of the two compound forms were then determined over a 10 hour period.

Where a name gives a salt, the structure may show the parent alone. Read-outs that look alike come from different tables or passages of the source.

As for `O=C(c1ccc(OCCN2CCCCC2)cc1)c1c(-c2ccc(O)cc2)sc2cc(O)ccc12` [amorphous, raloxifene hydrochloride], the “Solubility of the amorphous form relative to the crystalline form” value in series [1] (amorphous vs crystalline form) is “approximately 250 times”. Also, the Solubility in series [1] is 42.2 mg/mL; in “physchem” it was 120 mg/mL. Besides, the “Stability of the amorphous form” value in series [2] is listed as “very stable”. Also, the “Bioavailability (plasma levels)” value in series [3] is recorded as “greater bioavailability”.

Molecule `O=C(c1ccc(OCCN2CCCCC2)cc1)c1c(-c2ccc(O)cc2)sc2cc(O)ccc12` [crystalline, raloxifene hydrochloride, reference compound] gave a Solubility in series [1] of 0.08 mg/mL.
